According to patent US20240327351A1, “AMIDE AND ETHER SUBSTITUTED N-(1H-INDOL-7-YL)BENZENESULFONAMIDES AND USES THEREOF” (TRIANA BIOMEDICINES, INC., priority 2021, published 2024):

Experiments:
DCAF15/RBM39 = DCAF15/RBM39 (Homo sapiens, UniProt Q14498+Q66K64); assay: AlphaLISA compound-induced DCAF15-RBM39 ternary complex formation; assay type: binding; details: His-tagged DCAF15 complex and biotin-carrying RBM39
Description: Example 6: Quantitative Evaluation of Compound-Induced Ternary Complex Formation Using Amplified Luminescent Proximity Homogeneous Assay
Compound-induced DCAF15-RBM39 ternary complex formation was monitored using AlphaLISA® assays (Perkin Elmer, Waltham, MA). Test compounds were first collected in a 384-well microplate (cat. #781280, Grenier Bio-One, Monroe, NC) as 2 mM stocks in 100% dimethyl sulfoxide (DMSO). These stocks were then serially diluted in DMSO by 3-fold into a new plate (cat. #781280, Grenier Bio-One, Monroe, NC) using a Mosquito HTS dispenser (mosquito@ HTS, SPT Labtech, Boston, MA). 0.2 ul of these diluted stocks were then dispensed into a 384-well Optiplate (cat. #6007290, Perkin Elmer, Waltham, MA) in duplicate wells, to assemble the final assay plate consisting of duplicated dose ranges. Separately, a protein mixture consisting of His-tagged DCAF15 complex and biotin-carrying RBM39, each at 408 nM (2.04×), was prepared in 50 mM HEPES, pH 7.5, 100 mM NaCl, 2 mM MgCl2, 0.1% BSA, 2 mM TCEP, 0.05% Tween-20 (dilution buffer). 9.8 ul of this protein mixture was then mixed with the compounds in the assay plate and incubated for one hour at room temperature. Reaction mixtures with no compounds added were included as negative controls, while a His-tagged and biotinylated GST protein was included to track general assay performance. Nickel Chelate AlphaLISA Acceptor beads (cat. #AL108M, Perkin Elmer, MA) and AlphaScreen Streptavidin Donor beads (cat. #6760002, Perkin Elmer, Waltham, MA) were prepared separately in the dilution buffer as 4× stocks (80 ug/ml). The beads were then added to the assay plate sequentially with incubation at room temperature for 1-2 hours after each addition. Signals were recorded using EnVision 2104 Multilabel Plate Reader (Perkin Elmer, Waltham, MA) and titration curves were generated in GraphPad Prism (7.00, GraphPad, La Jolla, CA).

DCAF15 = DCAF15 (Homo sapiens, UniProt Q66K64); assay: HTRF competition assay, binary interaction between compounds and DCAF15; assay type: binding; details: competition with Alexa Fluor 647 tracer, His-tagged DCAF15 complex
Description: Example 7: Measurement of Binary Interaction Between Compounds And DCAF15 Using Homogeneous Time Resolved Fluorescence (HTRF)
DCAF15 interactions with test compounds were monitored using HTRF competition assays (Cisbio, Bedford, MA). Test compounds were first collected in a 384-well microplate (cat. #781280, Grenier Bio-One, Monroe, NC) as 10 mM stocks in 100% dimethyl sulfoxide (DMSO). A second stock plate (cat. #781280, Grenier Bio-One, Monroe, NC) was prepared through 3-fold serial dilution in DMSO of the afore-mentioned stocks using a Mosquito HTS dispenser (mosquito@ HTS, SPT Labtech, Boston, MA). 0.2 ul of these diluted stocks were then dispensed into a 384-well Optiplate (cat. #6007290, Perkin Elmer, Waltham, MA) in duplicate wells, to assemble the assay plate. The tracer molecule containing an Alexa Fluor 647 probe was prepared in 25 mM HEPES pH 7.5, 100 mM NaCl, 0.1 mg/ml BSA, 0.005% Tween 20, 0.5 mM TCEP (dilution buffer) to 612 nM (2.04×). Separately, His-tagged DCAF15 complex was prepared at 32 nM (4×) in the dilution buffer, and mAb Anti-6His-Eu cryptate Gold (cat. #61H12KLA, Cisbio, Bedford, MA) at 4× dilution in the detection buffer (cat. #61 DB9RDF, Cisbio, Bedford, MA). These two solutions were mixed and incubated for 15 min at room temperature. 9.8 ul of the tracer solution and 10 ul of the DCAF15/mAb Anti-6His-Eu cryptate Gold mixture were added sequentially to each well in the assay plate. Reaction mixtures with no DCAF15 added were included as positive controls. The final mixture was incubated for an hour at room temperature and spun down briefly before data collection at 615 nm and 666 nm using En Vision 2104 Multilabel Plate Reader (Perkin Elmer, Bedford, MA). Binding was estimated based on ratiometric analysis and titration curves were generated in GraphPad Prism (7.00, GraphPad, La Jolla, CA).

| EC50 (DCAF15/RBM39) [nM] | IC50 (DCAF15) [nM] | SMILES |
| --- | --- | --- |
| < 1000 | < 1000 | CN1CC(CCNC(=O)c2cccc(S(=O)(=O)Nc3ccc(Cl)c4c(Cl)c[nH]c34)c2F)C1 [Compound 192] |
| > 100000 | > 100000 | O=C(NC[C@H]1Cc2ccccc21)c1ccc(S(=O)(=O)Nc2ccc(Cl)c3c(Cl)c[nH]c23)c(F)c1 [Compound 165] |
| < 1000 | 1000 to 10000 | N[C@@H]1CCC[C@@H](Oc2ccc(S(=O)(=O)Nc3ccc(Cl)c4c(Cl)c[nH]c34)cc2)C1 [Compound 7] |
| < 1000 | < 1000 | O=C(NCCc1ccccn1)c1cccc(S(=O)(=O)Nc2ccc(Cl)c3c(Cl)c[nH]c23)c1F [Compound 200] |
| 1000 to 10000 | 10000 to 100000 | O=S(=O)(Nc1ccc(Cl)c2c(Cl)c[nH]c12)c1cccc(OCCCC2CCNCC2)c1 [Compound 98] |
| < 1000 | < 1000 | O=C(NCCOC1CCS(=O)(=O)CC1)c1ccc(S(=O)(=O)Nc2ccc(Cl)c3c(Cl)c[nH]c23)c(F)c1 [Compound 189] |
| > 100000 | > 100000 | O=C(c1ccc(S(=O)(=O)Nc2ccc(Cl)c3c(Cl)c[nH]c23)c(F)c1)N1CCC(c2ccnc(C(F)F)c2)CC1 [Compound 222] |
| > 100000 | > 100000 | O=S(=O)(Nc1ccc(Cl)c2c(Cl)c[nH]c12)c1ccc(OCCCc2ccc3c(c2)OCO3)cc1 [Compound 110] |
| 1000 to 10000 | 10000 to 100000 | NCCc1ccc(COc2cccc(S(=O)(=O)Nc3ccc(Cl)c4c(Cl)c[nH]c34)c2)cc1 [Compound 59] |
| 1000 to 10000 | 10000 to 100000 | O=S(=O)(Nc1ccc(Cl)c2c(Cl)c[nH]c12)c1ccc(OC[C@@H]2CCCNC2)cc1 [Compound 46] |
| < 1000 | 1000 to 10000 | COCCOCCCNC(=O)c1cccc(S(=O)(=O)Nc2ccc(Cl)c3c(Cl)c[nH]c23)c1F [Compound 202] |
| 1000 to 10000 | 1000 to 10000 | NCCc1ccc(COc2ccc(S(=O)(=O)Nc3ccc(Cl)c4c(Cl)c[nH]c34)cc2)cc1 [Compound 60] |
| < 1000 | > 100000 | Cn1nnc2cc(COc3ccc(S(=O)(=O)Nc4ccc(Cl)c5c(Cl)c[nH]c45)cc3)ccc21 [Compound 68] |
| < 1000 | 1000 to 10000 | CC1(Oc2ccc(S(=O)(=O)Nc3ccc(Cl)c4c(Cl)c[nH]c34)cc2)CCNCC1 [Compound 22, N-(3,4-dichloro-1H-indol-7-yl)-4-((4-methylpiperidin-4-yl)oxy)benzenesulfonamide] |
| < 1000 | 1000 to 10000 | Cn1ncnc1COc1ccc(S(=O)(=O)Nc2ccc(Cl)c3c(Cl)c[nH]c23)cc1 [Compound 67] |
| > 100000 | < 1000 | Cc1cnc(CNC(=O)c2ccc(S(=O)(=O)Nc3ccc(Cl)c4c(Cl)c[nH]c34)c(F)c2)cn1 [Compound 184] |
| 1000 to 10000 | 1000 to 10000 | Cc1ccnc([C@@H](NC(=O)c2cccc(S(=O)(=O)Nc3ccc(Cl)c4c(Cl)c[nH]c34)c2F)C2CC2)c1 [Compound 185] |
| < 1000 | 1000 to 10000 | O=C(NCCOC1CCS(=O)(=O)CC1)c1cccc(S(=O)(=O)Nc2ccc(Cl)c3c(Cl)c[nH]c23)c1F [Compound 188] |

| EC50 (DCAF15/RBM39) [nM] | IC50 (DCAF15) [nM] | SMILES |
| --- | --- | --- |
| 1000 to 10000 | 1000 to 10000 | O=C(c1ccc(S(=O)(=O)Nc2ccc(Cl)c3c(Cl)c[nH]c23)c(F)c1)N1CCc2[nH]c(-c3ccccc3)nc2C1 [Compound 227] |
| 1000 to 10000 | 1000 to 10000 | CC[C@H](NC(=O)c1ccc(S(=O)(=O)Nc2ccc(Cl)c3c(Cl)c[nH]c23)c(F)c1)c1ccc2c(c1)OCCO2 [Compound 211] |
| < 1000 | 1000 to 10000 | CC(C)C[C@H](NC(=O)c1cccc(S(=O)(=O)Nc2ccc(Cl)c3c(Cl)c[nH]c23)c1F)c1nc2ccccc2[nH]1 [Compound 213] |
| < 1000 | 1000 to 10000 | CC(C)CNC(=O)c1ccc(S(=O)(=O)Nc2ccc(Cl)c3c(Cl)c[nH]c23)c(F)c1 [Compound 240] |
| < 1000 | < 1000 | O=C(c1cccc(S(=O)(=O)Nc2ccc(Cl)c3c(Cl)c[nH]c23)c1F)N1CC[C@H](n2ccnn2)C1 [Compound 216] |
| 1000 to 10000 | > 100000 | CCOc1cc(N2CCC[C@H](COc3cccc(S(=O)(=O)Nc4ccc(Cl)c5c(Cl)c[nH]c45)c3)C2)ncn1 [Compound 43] |
| < 1000 | < 1000 | O=C(NCCCC(=O)N1CCCC1)c1cccc(S(=O)(=O)Nc2ccc(Cl)c3c(Cl)c[nH]c23)c1F [Compound 206] |
| 1000 to 10000 | 1000 to 10000 | O=S(=O)(Nc1ccc(Cl)c2c(Cl)c[nH]c12)c1ccc(OC2CCC3(CC2)CNC3)cc1 [Compound 27] |
| < 1000 | 10000 to 100000 | O=S(=O)(Nc1ccc(Cl)c2c(Cl)c[nH]c12)c1cccc(OC2CCC3(CC2)CNC3)c1 [Compound 26] |
| 1000 to 10000 | 1000 to 10000 | CN(C)C(=O)C[C@H](NC(=O)c1cccc(S(=O)(=O)Nc2ccc(Cl)c3c(Cl)c[nH]c23)c1F)c1ccccc1 [Compound 196] |
| < 1000 | > 100000 | O=S(=O)(Nc1ccc(Cl)c2c(Cl)c[nH]c12)c1cccc(OCc2ccc3c(c2)CNC3)c1 [Compound 65] |
| 1000 to 10000 | 1000 to 10000 | CC(C)(C)OC(=O)NC1(CNC(=O)c2ccc(S(=O)(=O)Nc3ccc(Cl)c4c(Cl)c[nH]c34)c(F)c2)CC1 [Compound 163] |
| 1000 to 10000 | 1000 to 10000 | CCN(CC)C(=O)c1ccc(CNC(=O)c2cccc(S(=O)(=O)Nc3ccc(Cl)c4c(Cl)c[nH]c34)c2F)cc1 [Compound 170] |
| 1000 to 10000 | > 100000 | O=S(=O)(Nc1ccc(Cl)c2c(Cl)c[nH]c12)c1cccc(O[C@@H]2C[C@@H]3C[C@@H]3C2)c1 [Compound 20] |
| 1000 to 10000 | 10000 to 100000 | O=C(c1ccc(S(=O)(=O)Nc2ccc(Cl)c3c(Cl)c[nH]c23)c(F)c1)N1CC(N2CCc3ccccc32)C1 [Compound 215] |
| < 1000 | 1000 to 10000 | CN(C)C(=O)C[C@H](NC(=O)c1ccc(S(=O)(=O)Nc2ccc(Cl)c3c(Cl)c[nH]c23)c(F)c1)c1ccccc1 [Compound 197] |
| < 1000 | 1000 to 10000 | O=C(c1ccc(S(=O)(=O)Nc2ccc(Cl)c3c(Cl)c[nH]c23)c(F)c1)N1CCC(Oc2cccnc2)CC1 [Compound 220] |
| 1000 to 10000 | > 100000 | N#Cc1ccc(Oc2ccc(S(=O)(=O)Nc3ccc(Cl)c4c(Cl)c[nH]c34)cc2)cc1 [Compound 37] |
